Assay: Analytical results of the Macadamia esters (Table I)
Type: physicochemical
Method: An analysis of the esters was conducted as to appearance, color, surface tension, spreading coefficient, freezing point, percentage of water, refractive index, and specific gravity.

Row | Substance | Spreading Coeffecient (° C.) | Viscosity (CPS) | Interfacial Tension (25° C.) | Surface Tension (25° C.)
1 | C12-15 Pareth-7 Macadamiate | 31.50 | 100 | 8.50 | 32.00
2 | Ceteareth-4 Macadamiate | 32.15 | 120 | 8.35 | 32.50
3 | Isostearyl Macadamiate | 32.75 | 40 | 7.75 | 31.5
4 | PPG-3 Myristyl Ether Macadamiate | 34.00 | 80 | 7.00 | 31.0

— patent publication US20060210520A1, “Macadamia lipid based surfactants and derivatives and process for preparing same” (Finetex, Inc., priority 2005, published 2006)
